Experimental data from patent publication US8124412B2, “Method of culturing conifer somatic embryos using S(+)-abscisic acid” (Cellfor Inc., priority 2005, dated 2012).

How the values were obtained:
[1] = tested on: loblolly pine somatic embryos, line 76; test: Loblolly pine somatic embryo maturation: plantable germinants per gram of tissue plated; type: cell-based, Pinus taeda (loblolly pine)
Description: The culture medium for loblolly pine was TX medium (see Table 1) with the following additives: Glutamine 2500 mg/L, casein hydrolysate 3000 mg/L, and pH 5.8. The following compounds were added into the basal medium for loblolly pine somatic embryo development at different stages:
1) Solid maintenance medium: 9 μM 2,4-D and 4.5 μM BA, gellan gum 0.3%, sucrose 1%, lactose 2%.
2) Liquid maintenance and bulking-up medium: 9 μM 2,4-D and 4.5 μM BA, 1% sucrose, 2% lactose.
3) Liquid pre-treatment medium: 1% sucrose, 2% lactose.
4) Preculture II medium. Lactose 2%, 1% sucrose
5) Solid maturation containing 1% gellan gum, and 2500 mg/L L-glutamine and 3000 mg/L casein hydrolysate, 3% sucrose. The maturation media contained different types of ABA and concentrations. S,R-ABA (98% purity) was tested at the previously determined optimum of 120 μM. S-ABA (90% purity) was tested at 60 μM and 120 μM. 0.3 grams of tissue were plated per petri-plate). Culture was for 18 weeks in the dark at room temperature. After, the embryos were desiccated for 1.5 hours in a stream of sterile air to a moisture content of less than 10%. Plates were stored at −28° C.
6) Germination. The filter papers with desiccated embryos attached were moved onto germination medium shown in Table 2, and cultured in the dark for 1 week then transferred to light. The numbers of germinants of suitable quality for planting were counted.

[2] = tested on: loblolly pine germinants/seedlings, line 76; test: Loblolly pine merchantable miniplug seedlings in nursery after maturation treatments; type: in vivo, Pinus taeda (loblolly pine); settings: line 76 (FIG. 5)
Description: The effect of the different kinds of ABA on the survival and vigour of germinants was investigated. The germinants were prepared as described above except that ABA in the maturation medium consisted of 95% and 98% purity S-ABA, which was used in the maturation medium at 60 and 120 μM concentration. The S,R-ABA (98% purity) was used at 60 and 120 μM concentration. Miniplug seedlings of merchantable quality were scored after 14 weeks in the nursery.

[3] = tested on: Douglas fir somatic embryos; test: Douglas fir somatic embryogenesis: maturation, germination and conversion after culture on S-ABA or S,R-ABA; type: cell-based, Pseudotsuga menziesii (Douglas fir)
Description: The culture medium used for Douglas fir was TX medium (see Table 1) with the following additives: glutamine 100 mg/L, casein hydrolysate 100 mg/L, and pH 5.8. The following compounds were added into the basal medium for Douglas fir somatic embryo development at different stages:
1) Solid maintenance medium: 9 μM 2,4-D and 4.5 μM BA, gellan gum 0.28%, sucrose 1%.
2) Liquid maintenance and bulking-up medium: 9 μM 2,4-D and 4.5 μM BA, different carbon sources for experiments.
3) Liquid pre-treatment medium: 20 (first week) or 30 μM ABA (second week), 10% PEG4000 (first week) or PEG1500 (second week), different carbon sources as described in examples below.
4) Solid maturation medium consisted of three media all with 0.02% NH4NO3 and the following:
Medium I. 40 μM ABA, 10% PEG 1500, maltose 2.5%, gellan gum 0.6%
Medium II. 60 μM ABA, 10% PEG1500, maltose 2.5% and sucrose 1%, gellan gum 0.8%
Medium III. 70 μM ABA, 6% PEG1500, sucrose 6%, gellan gum 1%.
The culture was kept in darkness at 23° C. Embryogenic tissue was sub-cultured once every two weeks onto solid maintenance medium. […]
5) Germination. The cultures were germinated at room temperature for 2 to 3 weeks on TX medium (Table 1), 0.5% gellan gum, 1 g/L NH4NO3 after which the germinants were hand selected and placed in low-light for 1 week and high-light for 7 weeks then planted in miniplugs and evaluated after 14 weeks.

[4] = tested on: loblolly pine somatic embryos, line 76; test: Loblolly pine: S-ABA concentration in preculture II medium and maturation medium; type: cell-based, Pinus taeda (loblolly pine); settings: S-ABA 95% purity, line 76 (FIG. 6)
Description: The effect of S-ABA (95% purity) was tested in the loblolly pine pre-culture II medium followed by maturation medium. Somatic embryos of line 76 were cultured as described above; however, ABA was added to the pre-culture medium and maturation medium in the following treatments: […]

SMILES	number of plantable germinants per gram of tissue plated, compared to 120 μM S,R-ABA ([1]; 60 μM S-ABA (90% purity) in maturation medium, loblolly line 76 (FIG. 4))	number of plantable germinants, compared to 120 μM S,R-ABA ([1]; 120 μM S-ABA (90% purity) in maturation medium, loblolly line 76 (FIG. 4))	mean % merchantable seedlings, rank among treatments ([2]; 60 μM 98% purity S-ABA, after 14 weeks in nursery)	merchantable seedlings, compared to the 60 μM S,R-ABA treatment ([2]; 120 μM S-ABA, after 14 weeks in nursery)	mean % merchantable seedlings, compared to the S,R-ABA treatments ([2]; all S-ABA treatments (95% and 98% purity, 60 and 120 μM), scored after 14 weeks in nursery)	effect on maturation frequencies ([3]; Douglas fir, S-ABA compared with S,R-ABA)	conversion of embryos, increase compared to S,R-ABA ([3]; one Douglas fir cell line with low conversion potential, embryos cultured on S-ABA vs S,R-ABA (FIG. 3))	gradual increase in S-ABA compared to constant ABA throughout development ([4]; 45 μM S-ABA in pre-culture medium to 90 μM in maturation medium)	90 μM S-ABA maturation medium compared to 120 μM S-ABA maturation medium [4]	optimum concentration in maturation medium ([1]; loblolly pine, S,R-ABA 98% purity, previously determined)
CC1=CC(=O)CC(C)(C)[C@@]1(O)/C=C/C(C)=C\C(=O)O (mixture of isomers) [S-ABA, (+)-cis,trans-Abscisic Acid]	significantly higher	double	significantly the is highest	more optimal	higher	similar	2.5 fold	superior	superior	–
CC1=CC(=O)CC(C)(C)C1(O)/C=C/C(C)=C\C(=O)O (stereo not shown) [S,R-ABA, reference compound]	–	–	–	–	–	–	–	–	–	120 µM
